One test deals with T1, sigma receptor (Cavia porcellus, UniProt Q60492).
T1 construct: from tissue
Description: Sigma binding (method of Tam and Cook). The protocol: In vitro IC50 test values for binding to the sigma receptor were determined for representative compounds of Formula I by the method of Tam and Cook [see: Tam, S. W., and Cook, L: Proc. Natl. Acad. Sci. USA 81, 5618-5621 (1984)] with only minor modifications. Test IC50 values lower than 100 nM are considered to reflect activity at the sigma receptor.

The target in the next test is T2, Dopamine D2 (Rattus norvegicus, UniProt P61169).
T2 construct: The corpus striatum was crudely dissected and frozen on dry ice; from tissue; host or cells: rat corpus striatum membranes (male Sprague-Dawley rats, Charles River)
As to the kind of experiment: Dopamine D2 Binding Assay ([3H]Spiperone, corpus striatum membranes). Also noted: species or system male Sprague-Dawley rats. As to conditions: [3H]Spiperone 0.1 nM, 37° C., 15 min. The protocol: Activity at D2 sites is measured using the screening process set out in Example 67.
Dopamine D2 Binding Assay
Dopamine D2 affinity was determined according to the procedures of Burt, Creese and Snyder [Molecular Pharmacology 12,800 (1976); Science 196, 326 (1977); Science 192, 481 (1976)]. Briefly, male Sprague-Dawley rats (Charles River) were decapitated, brains rapidly removed and chilled in ice-cold 50 mM Hepes/KOH buffer (pH 7.4, 20° C.). The corpus striatum was crudely dissected and frozen on dry ice. Tissue was pooled and stored at -80° C. until use. On the day of assay, tissue was thawed in 20 ml ice-cold Hepes/KOH buffer, and homogenized with a polytron for 15 sec at 18,000 rpm. The homogenate was centrifuged (39,000×g, 10 min, at 4° C.). The supernatant was discarded and the pellet rehomogenized in ice-cold Hepes/KOH buffer and recentrifuged as described previously. The supernatant was again discarded and the pellet resuspended (1:100) in ice-cold Hepes/KOH buffer (pH 7.4, 20° C., containing 120 mM NaCl, 5 mM KCl, 1 mM MgCl2, 0.1% (w/v) ascorbic acid, and 10 μM pargylline, and stored on ice until assay. The binding assay (1 ml total volume) was performed in duplicate and initiated by the addition of 800 μl membrane homogenate to tubes containing 100 μl [^3 H]Spiperone (0.1 nM final concentration), and 100 μl competitor, buffer, or butaclamol, which was used to define the non-specific binding. The assay was incubated at 37° C. for 15 min, afterwhich the assay was terminated by rapid filtration.
In vitro IC50 test values for binding to the D2 receptor were determined for representative compounds of Formula I by the method of Burt, Creese, and Snyder, Molecular Pharmacology 12, 800 (1976); Creese, Burt, and Snyder, Science 196, 326 (1977); and Creese, Burt and Snyder, Science 192, 481 (1976). Test IC50 values greater than 1,000 nM are considered to reflect inactivity at the D2 receptor, indicating the risk of extrapyramidal side effects is small.

In the next test the test system is brain ischemia. Description: Anoxic Nitrogen Test in Rats. The note with it: Rattus norvegicus, sc, subcutaneously, 2 hr survival, read-out: Nitrogen Anoxia % Survival. The test is classed as in vivo, male Sprague-Dawley rats. The source says: Most specifically, administration of the compounds of Formula I results in protection against hypoxia-induced death in an anoxic nitrogen test in rats (Example 66). The test identifies the neuro-protective effects of substances against lethal brain damages produced by a lack of oxygen consumption (anoxia). In this test procedure, control animals exposed for one minute to a pure nitrogen atmosphere will expire because of respiratory failure caused by irreversible damage to the brain respiratory center.
Anoxic Nitrogen Test in Rats
The animals utilized are male Sprague-Dawley rats (200-400 grams) housed four animals per cage in a normal controlled environment with unlimited access to food and water. Usually there are 8 animals per dose, however, […] can be employed to obtain an initial impression of a compound's activity. Animals are parenterally or orally administered the vehicle or test compound 30 minutes before the anoxic insult. The anoxic episode consists of placing up to 8 animals in the sealed test chamber (10" l×10" w×6" h) continuously flushed with pure N2 (4.5 grade) at a flow rate of 5 SCFM for 1 min. Animals are then promptly removed to normal atmosphere and observed for the 2 hour period. Typically, animals become disoriented within 15 sec after which they remain motionless.
Even though the heart is still beating after the N2 exposure, all control animals fail to gasp when removed from the chamber and usually expire within 3 minutes. Drug treated animals, however, still gasp or start gasping after being removed, which is a good indication that the animals will survive the N2 exposure [see Wauquire, A., et al: Arch. Int. Pharmacodyn., 249, 330-334 (1981); Wauquier, A., et al: Drug Dev. Res., 8, 373-380 (1986)]. Results are recorded as:
(Number of animals surviving (2 hr))/(Number of animals tested)×100%
The anoxic nitrogen test is an in vivo model of brain ischemia in rats [see: Wauquire, A., et al: Arch. Int. Pharmacodyn., 249, 330-334 (1981); Wauquier, A., et al: Drug Dev. Res., 8, 373-380 (1986)]. Compounds of the present invention are active in this in vivo model of brain ischemia when given subcutaneously in the doses indicated in Table 2, thus providing additional evidence that the present compounds will be useful in the treatment of brain ischemia.

Molecules are shown by their SMILES. Where two headings read alike, the source gives them in different places.

T1 sequence (Q60492 whole entry): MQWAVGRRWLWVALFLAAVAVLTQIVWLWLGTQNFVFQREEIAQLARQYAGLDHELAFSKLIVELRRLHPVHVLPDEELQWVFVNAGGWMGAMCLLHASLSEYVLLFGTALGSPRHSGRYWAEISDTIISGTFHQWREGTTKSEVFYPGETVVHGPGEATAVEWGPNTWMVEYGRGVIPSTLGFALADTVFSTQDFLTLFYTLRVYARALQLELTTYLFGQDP
T2 sequence (P61169 whole entry): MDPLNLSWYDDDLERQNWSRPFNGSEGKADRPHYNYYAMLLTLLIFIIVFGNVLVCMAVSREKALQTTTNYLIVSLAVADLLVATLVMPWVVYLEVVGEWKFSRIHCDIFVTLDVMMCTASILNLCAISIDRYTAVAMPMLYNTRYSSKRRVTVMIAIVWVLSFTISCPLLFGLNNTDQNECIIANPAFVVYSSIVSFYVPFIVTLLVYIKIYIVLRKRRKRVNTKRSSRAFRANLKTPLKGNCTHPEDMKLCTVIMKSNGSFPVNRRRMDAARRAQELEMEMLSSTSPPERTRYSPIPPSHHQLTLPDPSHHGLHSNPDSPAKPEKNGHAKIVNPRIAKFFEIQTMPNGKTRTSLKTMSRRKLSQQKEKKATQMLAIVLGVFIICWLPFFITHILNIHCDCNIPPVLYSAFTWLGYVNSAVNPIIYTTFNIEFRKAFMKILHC

Usually IC50 stands for the point on the concentration scale where inhibition reaches its midpoint. Read a high IC50 as lower potency. Turning to `Fc1ccc(CN2CCN(C3CC=C(c4ccc(F)cc4)CC3)CC2)cc1` (stereo not drawn) [Example 41, 1-[4-(4-Fluorophenyl)-3-cyclohexen-1-yl]-4-[(4-fluorophenyl)methyl]piperazine], the results for the IC50 on sigma receptor and on Dopamine D2 were 0.6 nM and 1000 to 10000 nM, respectively. Moreover, the responders at 20 mg/kg in the test on brain ischemia (20 mg/kg) was found to be 92%.

In the case of `COc1ccc2[nH]cc(C3=CCC(N4CCN(Cc5ccccc5)CC4)CC3)c2c1` (stereo not drawn) [Example 48, 5-Methoxy-3-[4-[4-(phenylmethyl)-1-piperazinyl]-1-cyclohexen-1-yl]-1H-indole], the results for the IC50 on sigma receptor and on Dopamine D2 were 6.2 nM and 1000 to 10000 nM, respectively. The responders at 40 mg/kg in the test with brain ischemia amounted to 88%.

Regarding `Fc1ccc(F)c(CC2CCN(C3CC=C(c4ccc(F)c(F)c4)CC3)CC2)c1` (stereo not drawn) [Example 55, 1-[4-(3,4-Difluorophenyl)-3-cyclohexen-1-yl]-4-[(2,5-difluorophenyl)methyl]piperidine], on Dopamine D2, the IC50 lay in the range of 1000 to 10000 nM.

Take `Fc1ccc([C@H]2CC[C@H](N3CCN(Cc4ccccc4)CC3)CC2)c2ccccc12` [Example 62-trans, Cis and trans 1-[4-(4-fluoro-1-naphthalenyl)-1-cyclohexyl]-4-(phenylmethyl)piperazine]: the IC50 at sigma receptor is 3.3 nM; at Dopamine D2, greater than 100000 nM. Besides, the responders at 40 mg/kg in the test with brain ischemia stood at 100%.

Take `C1=C(Cc2ccccc2)CCC(N2CCN(Cc3ccccc3)CC2)C1` (stereo not drawn) [Example 43, 1-(Phenylmethyl)-4-[4-(phenylmethyl)-3-cyclohexen-1-yl]piperazine]: the values for the IC50 on sigma receptor and at Dopamine D2 were 2.1 nM and 1000 to 10000 nM, respectively. Moreover, in the test on brain ischemia (5 mg/kg), the responders at 5 mg/kg was determined as 75%.

Take `Fc1ccc(C2=CCC(N3CCC(Cc4ccccc4)CC3)CC2)cc1` (stereo not drawn) [Example 47, 1-[4-(4-Fluorophenyl)-3-cyclohexen-1-yl]-4-(phenylmethyl)piperidine]: the IC50 on sigma receptor was 4 nM; on Dopamine D2, 1000 to 10000 nM. For the same molecule, the responders at 40 mg/kg in the test on brain ischemia amounted to 88%.

As to `FC(F)(F)c1ccc(C2=CCC(N3CCN(Cc4ccccc4)CC3)CC2)cc1` (stereo not drawn) [Example 40, 1-(Phenylmethyl)-4-[4-[4-(trifluoromethyl)phenyl]-3-cyclohexen-1-yl]piperazine], the IC50 is 4.5 nM on sigma receptor and 10000 to 50000 nM at Dopamine D2. Also, in the test on brain ischemia, the responders at 10 mg/kg stood at 100%.

With `COc1cccc(CN2CCN(C3CC=C(c4ccc5c(c4)OCO5)CC3)CC2)c1` (stereo not drawn) [Example 59, 1-[4-(1,3-Benzodioxol-5-yl)-3-cyclohexen-1-yl]-4-[(3-methoxyphenyl)methyl]piperazine], on Dopamine D2, the IC50 is 1000 to 10000 nM. For the same molecule, the responders at 10 mg/kg in the test with brain ischemia amounted to 75%.

Regarding `C1=C(c2ccc3c(c2)OCO3)CCC(N2CCN(Cc3ccccc3)CC2)C1` (stereo not drawn) [Example 37, 1-[4-(1,3-Benzodioxol-5-yl)-3-cyclohexen-1-yl]-4-(phenylmnethyl) piperazine], the IC50 was 1.9 nM at sigma receptor and 10000 to 50000 nM at Dopamine D2. In the test with brain ischemia, the responders at 40 mg/kg was 92%.

For the molecule `C1=C(c2ccc3c(c2)OCCO3)CCC(N2CCN(Cc3ccccc3)CC2)C1` (stereo not drawn) [Example 56, 1-[4-(1,4-Benzodioxan-6-yl)-3-cyclohexen-1-yl]-4-(phenylmethyl)piperazine], the responders at 10 mg/kg with brain ischemia stood at 100%.

On Dopamine D2, `Ic1ccc(I)c(CN2CCN(C3CC=C(c4ccc5c(c4)OCO5)CC3)CC2)c1` (stereo not drawn) [Example 61, 1-[4-(1,3-Benzodioxol-5-yl)-3-cyclohexen-1-yl]-4-[(2,5-diiodophenyl)methyl]piperazine] gave an IC50 greater than 100000 nM.

At Dopamine D2, `Fc1ccc(C2=CCC(N3CCN(Cc4ccc5ccccc5n4)CC3)CC2)cc1` (stereo not drawn) [Example 45, 2{{4-[4-(4-Fluorophenyl)-3-cyclohexen-1-yl]-1-piperazinyl]methyl]quinoline] had a half-inhibitory concentration (IC50) of 1000 to 10000 nM. Besides, the responders at 20 mg/kg with brain ischemia (20 mg/kg) is 83%.

`Clc1ccc2[nH]cc(C3=CCC(N4CCN(Cc5ccccc5)CC4)CC3)c2c1` (stereo not drawn) [Example 50, 5-Chloro-3-{4-[4-(phenylmethyl)-1-piperazinyl]-1-cyclohexen-1-yl]-1H-indole]: the figures for the IC50 at sigma receptor and at Dopamine D2 were 31.4 nM and 10000 to 50000 nM, respectively. The responders at 20 mg/kg with brain ischemia (20 mg/kg) is 100%.

In turn, `Fc1ccccc1CC1CCN(C2CC=C(c3ccc4c(c3)OCO4)CC2)CC1` (stereo not drawn) [Example 53, 1-[4-(1,3-Benzodioxol-5-yl)-3-cyclohexen-1-yl]-4-[(2-fluorophenyl)methyl]piperidine] displayed an IC50 on Dopamine D2 of 1000 to 10000 nM.

For the molecule `Fc1ccc2[nH]cc(C3=CCC(N4CCC(Cc5ccccc5)CC4)CC3)c2c1` (stereo not drawn) [Example 51, 5-Fluoro-3-{4-[4-(phenylmethyl)-1-piperidinyl]-1-cyclohexen-1-yl]-1H-indole], the results for the IC50 on sigma receptor and at Dopamine D2 were 11.1 nM and 1000 to 10000 nM, respectively. The responders at 20 mg/kg in the test with brain ischemia (20 & 40 mg/kg) stood at 67%.

For the molecule `Fc1ccc(C2=CCC(N3CCN(Cc4ccncc4)CC3)CC2)cc1` (stereo not drawn) [Example 46, 1-[4-(4-Fluorophenyl)-3-cyclohexen-1-yl]-4-(4-pyridinylmethyl)piperazine], the IC50 at sigma receptor was 0.5 nM; on Dopamine D2, 50000 to 100000 nM. Moreover, the responders at 20 mg/kg with brain ischemia (20 mg/kg) came out at 83%.

The molecule `Clc1ccccc1CN1CCN(C2CC=C(c3ccc4c(c3)OCO4)CC2)CC1` (stereo not drawn) [Example 57, 1-[4-(1,3-Benzodioxol-5-yl)-3-cyclohexen-1-yl]-4-[(2-chlorophenyl)methyl]piperazine] showed an IC50 at Dopamine D2 of 1000 to 10000 nM. Further, in the test with brain ischemia, the responders at 10 mg/kg is 25%.

For `Fc1ccc([C@H]2CC[C@H](N3CCN(Cc4ccc5ccccc5n4)CC3)CC2)cc1` [Example 64, Trans 2-{{4-[4-(4-fluorophenyl)-1-cyclohexyl]-1-piperazinyl}methyl]quinoline], the IC50 on Dopamine D2 was 1000 to 10000 nM. In addition, the responders at 5 mg/kg with brain ischemia (5 & 20 mg/kg) is 83%.

In the case of `Fc1ccc(F)c(CN2CCN(C3CC=C(c4ccc5c(c4)OCO5)CC3)CC2)c1` (stereo not drawn) [Example 58, 1-[4-(1,3-Benzodioxol-5-yl)-3-cyclohexen-1-yl]-4-[(2,5-difluorophenyl)methyl]piperazine], the IC50 at Dopamine D2 is 1000 to 10000 nM. Also, the responders at 10 mg/kg in the test on brain ischemia came to 62%.

With `Fc1ccc(C2=CCC(N3CCN(Cc4ccccc4)CC3)CC2)c2ccccc12` (stereo not drawn) [Example 36, 1-[4-(4-Fluoro-1-naphthalenyl)-3-cyclohexen-1-yl]-4-(phenylmethyl)piperazin], the IC50 on Dopamine D2 lay within 1000 to 10000 nM. Moreover, the responders at 50 mg/kg in the test with brain ischemia (50 mg/kg) was 100%.

Consider `Fc1ccc(C2=CCC(N3CCN(Cc4cccs4)CC3)CC2)cc1` (stereo not drawn) [Example 44, 1-[4-(4-Fluorophenyl)-3-cyclohexen-1-yl]-4-(2-thienylmethyl)piperazine], for which the IC50 on Dopamine D2 fell in the range of 1000 to 10000 nM. In addition, the responders at 40 mg/kg with brain ischemia turned out to be 100%.

The values above are taken from US6153611A, “Piperazinyl-cyclohexanes and cyclohexenes” (Bristol-Myers Squibb Company, priority 1993, dated 2000).
